Legend:
[1] = molecular target: Cholinesterase (Homo sapiens, UniProt P06276); experiment: Inhibition of human serum BChE
[2] = Hydrolytic stability in 25 mM phosphate buffer at pH 7.3, 37 degC; assay type: physicochemical; conditions: for half-life: phosphate buffer; for t1/2: buffer
[3] = system: Human immunodeficiency virus 2; experiment: Antiviral activity against H1V2 in CEM/0 cells; assay type: functional, organism-based
[4] = system: Human immunodeficiency virus 2; experiment: Antiviral activity against H1V2 in TK-deficient CEM cells; assay type: functional, organism-based, CCRF-CEM
[5] = system: Human immunodeficiency virus 1; experiment: Antiviral activity against HIV1 in CEM/0 cells; assay type: functional, organism-based
[6] = Cytotoxicity against CEM/0 cells; assay type: cell-based, CCRF-CEM; conditions: human
[7] = Human immunodeficiency virus 2, CCRF-CEM
[8] = Human immunodeficiency virus 1, CCRF-CEM

Cholinesterase, sequence (P06276 whole entry): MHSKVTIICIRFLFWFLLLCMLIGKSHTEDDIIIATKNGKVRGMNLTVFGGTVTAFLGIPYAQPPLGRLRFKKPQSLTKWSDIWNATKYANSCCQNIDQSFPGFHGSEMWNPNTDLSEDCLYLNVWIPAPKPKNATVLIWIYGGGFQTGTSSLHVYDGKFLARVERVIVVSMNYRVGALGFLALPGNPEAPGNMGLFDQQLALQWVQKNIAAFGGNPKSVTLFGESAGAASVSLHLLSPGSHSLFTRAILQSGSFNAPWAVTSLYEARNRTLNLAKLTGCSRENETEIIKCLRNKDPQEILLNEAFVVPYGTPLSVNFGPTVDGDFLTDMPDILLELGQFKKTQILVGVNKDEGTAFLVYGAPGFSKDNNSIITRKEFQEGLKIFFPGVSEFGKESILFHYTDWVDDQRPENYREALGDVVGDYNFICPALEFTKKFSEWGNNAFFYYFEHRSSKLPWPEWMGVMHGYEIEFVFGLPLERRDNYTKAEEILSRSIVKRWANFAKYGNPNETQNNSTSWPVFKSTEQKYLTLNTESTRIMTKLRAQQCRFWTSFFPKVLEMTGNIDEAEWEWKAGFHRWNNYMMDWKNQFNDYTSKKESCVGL

Structure (SMILES)	IC50 [1] [µM]	half-life [2] [h]	EC50 [3, 7] [µM]	EC50 ([4]; ccrf-cem) [µM]	EC50 [5, 8] [µM]	CC50 ([6]; CEM/0 cells) [µM]	t1/2 [2] [h]	EC50 ([5]; cem/0) [µM]	CC50 ([6]; ccrf-cem) [µM]	EC50 [4, 7] [µM]	EC50 ([3]; cem/0) [µM]
Cc1cn([C@H]2C=C[C@@H](COP3(=O)OCc4cccc(-c5cccc(CO)c5O)c4O3)O2)c(=O)[nH]c1=O (stereo in doubt; 29(Sp))	0.79	1.1	0.4	1.5	0.34	78.7	–	–	–	–	–
Cc1cn([C@H]2C=C[C@@H](COP3(=O)OCc4cccc(-c5cccc6c5OC(C)(C)OC6)c4O3)O2)c(=O)[nH]c1=O (stereo in doubt; 33(Rp))	> 50	–	–	0.55	–	–	21	0.36	55.3	–	–
Cc1cn([C@H]2C=C[C@@H](COP3(=O)OCc4cccc(-c5cccc6c5OP(=O)(OC[C@@H]5C=C[C@H](n7cc(C)c(=O)[nH]c7=O)O5)OC6)c4O3)O2)c(=O)[nH]c1=O (stereo in doubt; 6)	40	–	0.27	–	0.19	–	–	–	27.8	2.33	–
Cc1cc2c(c(-c3cc(C)cc4c3OP(=O)(OC[C@@H]3C=C[C@H](n5cc(C)c(=O)[nH]c5=O)O3)OC4)c1)OP(=O)(OC[C@@H]1C=C[C@H](n3cc(C)c(=O)[nH]c3=O)O1)OC2 (stereo not given in full)	> 50	12	0.41	–	0.37	67.1	–	–	–	1.6	–
Cc1cn([C@H]2C=C[C@@H](COP3(=O)OCc4cccc(-c5cccc6c5OP(=O)(OC[C@@H]5C=C[C@H](n7cc(C)c(=O)[nH]c7=O)O5)OC6)c4O3)O2)c(=O)[nH]c1=O (single isomer, unassigned; diastereomer 1)	14	–	–	3.33	–	–	–	0.25	107	–	0.3
Cc1cn([C@H]2C=C[C@@H](COP3(=O)OCc4cccc(-c5cccc6c5OP(=O)(OC[C@@H]5C=C[C@H](n7cc(C)c(=O)[nH]c7=O)O5)OC6)c4O3)O2)c(=O)[nH]c1=O (single isomer, unassigned; diastereomer 2)	> 50	–	–	2.37	–	–	–	0.21	90.7	–	0.22
Cc1cn([C@H]2C=C[C@@H](COP3(=O)OCc4cccc(-c5cccc6c5OC(C)(C)OC6)c4O3)O2)c(=O)[nH]c1=O (stereo in doubt; 33(Sp))	3.6	14	0.4	3	0.5	89.3	–	–	–	–	–
Cc1cn([C@H]2C=C[C@@H](COP(=O)(O)OCc3cccc(-c4cccc5c4OP(=O)(OC[C@@H]4C=C[C@H](n6cc(C)c(=O)[nH]c6=O)O4)OC5)c3O)O2)c(=O)[nH]c1=O (stereo not given in full)	2.3	–	–	–	–	–	–	–	–	–	–
Cc1cn([C@H]2C=C[C@@H](COP3(=O)OCc4cccc(-c5ccccc5)c4O3)O2)c(=O)[nH]c1=O (stereo not given in full)	0.35	5.1	0.27	–	0.13	22	–	–	–	0.28	–
OCc1cccc(-c2cccc(CO)c2O)c1O	> 50	–	> 150	–	> 150	> 150	–	–	–	–	–
Cc1cn([C@H]2C=C[C@@H](COP3(=O)OCc4cccc(-c5cccc6c5OC(C)(C)OC6)c4O3)O2)c(=O)[nH]c1=O (stereo in doubt; 33)	4.7	–	–	1.07	–	–	16	0.35	65	–	–
Cc1cc(CO)c(O)c(-c2cc(C)cc(CO)c2O)c1	> 50	–	> 150	–	> 150	> 150	–	–	–	–	–
Cc1cn([C@H]2C=C[C@@H](CO)O2)c(=O)[nH]c1=O [STAVUDINE]	–	–	0.19	–	0.25	105	–	–	–	51	–
Cc1cn([C@H]2C=C[C@@H](COP3(=O)OCc4cccc(-c5cccc(CO)c5O)c4O3)O2)c(=O)[nH]c1=O (stereo in doubt; 29(Rp))	> 50	–	–	0.7	–	–	1.4	0.27	69.4	–	0.5
Cc1cn([C@H]2C=C[C@@H](COP3(=O)OCc4cccc(-c5cccc(CO)c5O)c4O3)O2)c(=O)[nH]c1=O (stereo in doubt; 29)	2.3	–	–	–	–	–	1.3	–	–	–	–

— ChEMBL document CHEMBL1142967, “Bis-cycloSal-d4T-monophosphates: drugs that deliver two molecules of bioactive nucleotides” (J Med Chem, 2007)
